The source of these data is ChEMBL document CHEMBL1136730, “Antiestrogens and selective estrogen receptor modulators as multifunctional medicines. 2. Clinical considerations and new agents” (J Med Chem, 2003).

In one series the test system is Rattus norvegicus. Briefly: Effect on stimulation of immature rat uterus in dose limit of 0.1 and 10 mg/kg; No effect but lowers circulating cholesterol. More on the design: dose 10 mg/kg. In kind it is functional, organism-based.
A further series addresses T1, Estrogen receptor (Homo sapiens, UniProt P03372).
T1 sequence (P03372 whole entry): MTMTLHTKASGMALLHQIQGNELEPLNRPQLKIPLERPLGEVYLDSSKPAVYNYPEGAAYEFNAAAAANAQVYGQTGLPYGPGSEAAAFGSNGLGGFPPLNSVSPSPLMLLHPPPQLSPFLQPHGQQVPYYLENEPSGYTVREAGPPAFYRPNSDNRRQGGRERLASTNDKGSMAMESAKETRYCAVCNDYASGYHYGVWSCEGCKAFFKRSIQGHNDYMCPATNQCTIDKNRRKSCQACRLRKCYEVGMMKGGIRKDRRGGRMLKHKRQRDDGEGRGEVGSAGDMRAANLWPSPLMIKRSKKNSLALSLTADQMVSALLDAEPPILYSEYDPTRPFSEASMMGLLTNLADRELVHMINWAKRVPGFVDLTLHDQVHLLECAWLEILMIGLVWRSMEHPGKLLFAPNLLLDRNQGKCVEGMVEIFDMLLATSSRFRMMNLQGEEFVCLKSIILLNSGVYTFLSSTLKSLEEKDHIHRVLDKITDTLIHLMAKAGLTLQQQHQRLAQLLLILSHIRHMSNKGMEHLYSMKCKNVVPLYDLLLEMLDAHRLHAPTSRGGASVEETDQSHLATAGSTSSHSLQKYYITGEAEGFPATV
Briefly: Binding affinity for Estrogen receptor alpha.

The nature of series [1]: Effect on bone density of totalhip was determined in postmenopausal women. In kind it is functional, Homo sapiens, Bone element.
The species named for series [2] is Homo sapiens. Briefly: Effect on spine fractures in postmenopausal women with osteoporosis. It counts as functional.
The species entered for series [3] is Homo sapiens. Nature of the series: Effect on bone density in the lumber spine was determined in postmenopausal women. It counts as functional.

Calls of active or inactive are those of the source. The rule behind the calls is not given here.

In the case of `Oc1ccc2c(c1)CN(c1ccc(OCCN3CCCCC3)cc1)c1c-2ccc2cc(O)ccc12`, in the series with Rattus norvegicus, the Effect entry was “inactive”. Affinity on Estrogen receptor was put at a Ki of 280 pM.
In the series “in vivo”, `O=C(c1ccc(OCCN2CCCCC2)cc1)c1c(-c2ccc(O)cc2)sc2cc(O)ccc12` [RALOXIFENE] came in with a bioavailability of 2%. For the same compound, the Increase (in series [1]; in the series listed under Homo sapiens [3]) was 2.4% each time. In the series filed under Homo sapiens [2], this compound yielded a Decrease of 40%.
